From patent US20240132484A1, “BROAD SPECTRUM ANTIVIRAL COMPOUNDS TARGETING THE SKI COMPLEX” (priority 2020, published 2024)
Values joined by “and” are separate entries in the source; they are usually repeats but may differ in a detail not shown here. Identical values can stand only once. Like-named read-outs stand apart in the source and are kept apart here.

Assays:
[1] = test system: cells (nuclei count); conditions: for Toxicity Data: Average, Mean: average of Exp 1-3 (SMW475, SMW477, SMW478), n 9; for Toxicity Data, Percentage Relative to Appropriate DMSO Control, Mean: Average of Exp 1 and Exp 2, n=4; for Toxicity Data, Percentage Relative to Appropriate DMSO Control: single wells
[2] = test system: SARS2; format: cell-based, SARS-CoV-2; conditions: for Percentage Infection Relative to Appropriate DMSO Control: Exp 1 (SMW454), single wells; for Percentage Infection Relative to Appropriate DMSO Control / Infection Data: Percentage Infection Relative to Appropriate DMSO Control: avg background subtraction; for Infection Data: Percentage Infection Relative to Appropriate DMSO Control: replicate wells; for Infection Data: Average, Mean: average of Exp 1-3 (SMW475, SMW477, SMW478), n 9

COc1ccc(CNCCc2ccccc2F)c(OCC(O)CN2CCN(C)CC2)c1 (racemic) [UMB18G]
Toxicity Data: Average, Mean ([1]; 1 uM): 125.37%
Relative cell count to DMSO controls, Average 1 μM ([1]; 1 μM, toxicity data, 100=DMSO control): 123.37
Toxicity Data: Average, Mean ([1]; 5 uM): 151.57%
Relative cell count to DMSO controls, Average 5 μM ([1]; 5 μM, toxicity data, 100=DMSO control): 134.20
Toxicity Data: Average, Mean ([1]; 10 uM): 148.72%
Relative cell count to DMSO controls, Average 10 μM ([1]; 10 μM, toxicity data, 100=DMSO control): 139.68
Toxicity Data: Average, Mean ([1]; 25 uM): 110.49%
Relative cell count to DMSO controls, Average 25 μM ([1]; 25 μM, toxicity data, 100=DMSO control): 116.94
Toxicity Data: Average, Mean ([1]; 50 uM): 58.67%
Relative cell count to DMSO controls, Average 50 μM ([1]; 50 μM, toxicity data, 100=DMSO control): 85.72
Toxicity Data, Average, Mean ([1]; Average of Exp 1-3, n 9, 1 uM): 108.03%
Toxicity Data, Average, Mean ([1]; Average of Exp 1-3, n 9, 5 uM): 120.64%
Toxicity Data, Average, Mean ([1]; Average of Exp 1-3, n 9, 10 uM): 114.41%
Toxicity Data, Average, Mean ([1]; Average of Exp 1-3, n 9, 25 uM): 112.46%
Toxicity Data, Average, Mean ([1]; Average of Exp 1-3, n 9, 50 uM): 78.15%
Toxicity Data, Percentage Relative to Appropriate DMSO Control, Mean ([1]; 1 uM): 121.38% and 131.60%
Toxicity Data, Percentage Relative to Appropriate DMSO Control, Mean ([1]; 5 uM): 129.65% and 137.65%
Toxicity Data, Percentage Relative to Appropriate DMSO Control, Mean ([1]; 10 uM): 137.10% and 131.04%
Toxicity Data, Percentage Relative to Appropriate DMSO Control, Mean ([1]; 25 uM): 118.22% and 120.31%
Toxicity Data, Percentage Relative to Appropriate DMSO Control, Mean ([1]; 50 uM): 93.28% and 100.37%
Toxicity Data, nuclei count relative to DMSO controls ([1]; Exp 1 (SMW454), 1 uM): 94.8% and 106.7% and 107.9%
Toxicity Data, nuclei count relative to DMSO controls ([1]; Exp 1 (SMW454), 5 uM): 92.6% and 104.0% and 109.1%
Toxicity Data, nuclei count relative to DMSO controls ([1]; Exp 1 (SMW454), 10 uM): 94.4% and 107.2% and 106.3%
Toxicity Data, nuclei count relative to DMSO controls ([1]; Exp 1 (SMW454), 25 uM): 98.3% and 107.4% and 105.6%
Toxicity Data, nuclei count relative to DMSO controls ([1]; Exp 1 (SMW454), 50 uM): 95.5% and 101.6% and 97.7%
Toxicity Data, Percentage Relative to Appropriate DMSO Control ([1]; Exp 1 (SMW506), 10 uM): 114% and 126% and 122%
Toxicity Data, Percentage Relative to Appropriate DMSO Control ([1]; Exp 1 (SMW506), 25 uM): 111% and 119% and 121%
Toxicity Data, nuclei count relative to DMSO controls ([1]; Exp 2 (SMW466), 1 uM): 77.1% and 105.3% and 105.6%
Toxicity Data, nuclei count relative to DMSO controls ([1]; Exp 2 (SMW466), 5 uM): 80.8% and 132.0% and 142.0%
Toxicity Data, nuclei count relative to DMSO controls ([1]; Exp 2 (SMW466), 10 uM): 78.2% and 135.1% and 144.2%
Toxicity Data, nuclei count relative to DMSO controls ([1]; Exp 2 (SMW466), 25 uM): 68.6% and 126.9% and 132.7%
Toxicity Data, Percentage Relative to Appropriate DMSO Control ([1]; Exp 2 (SMW507), 5 uM): 144% and 156% and 158%
Toxicity Data, Percentage Relative to Appropriate DMSO Control ([1]; Exp 2 (SMW507), 10 uM): 148% and 160% and 140%
Toxicity Data, nuclei count relative to DMSO controls ([1]; Exp 3 (SMW480), 1 uM): 110.1% and 127.5% and 137.1%
Toxicity Data, nuclei count relative to DMSO controls ([1]; Exp 3 (SMW480), 5 uM): 113.4% and 154.3% and 157.5%
Toxicity Data, nuclei count relative to DMSO controls ([1]; Exp 3 (SMW480), 10 uM): 89.6% and 123.8% and 150.9%
Toxicity Data, nuclei count relative to DMSO controls ([1]; Exp 3 (SMW480), 50 uM): 60.8% and 69.5% and 85.1%
Relative cell count to DMSO controls, Average (for correlation analysis) ([1]; average value over the 5 tested concentrations (1 to 50 uM)): 119.98
Percentage Infection Relative to Appropriate DMSO Control ([2]; 1 uM): 79.68% and 100.00% and 102.30%
Infection Data: Percentage Infection Relative to Appropriate DMSO Control ([2]; 1 uM, Exp 1 (SMW475)): 59.52% and 81.22% and 48.39%
Infection Data: Percentage Infection Relative to Appropriate DMSO Control ([2]; 1 uM, Exp 2 (SMW477)): 30.54% and 44.61% and 49.97%
Infection Data: Percentage Infection Relative to Appropriate DMSO Control ([2]; 1 uM, Exp 3 (SMW478)): 92.92% and 83.96% and 93.97%
Infection Data: Average, Mean ([2]; 1 uM): 65.01%
Percentage Infection Relative to Appropriate DMSO Control ([2]; 5 uM): 82.33% and 99.01% and 94.32%
Infection Data: Percentage Infection Relative to Appropriate DMSO Control ([2]; 5 uM, Exp 1 (SMW475)): 11.41% and 21.71% and 5.92%
Infection Data: Percentage Infection Relative to Appropriate DMSO Control ([2]; 5 uM, Exp 2 (SMW477)): 9.13% and 26.77% and 20.94%
Infection Data: Percentage Infection Relative to Appropriate DMSO Control ([2]; 5 uM, Exp 3 (SMW478)): 28.65% and 43.74% and 34.06%
Infection Data: Average, Mean ([2]; 5 uM): 22.48%
Percentage Infection Relative to Appropriate DMSO Control ([2]; 10 uM): 84.64% and 105.70% and 105.02%
Infection Data: Percentage Infection Relative to Appropriate DMSO Control ([2]; 10 uM, Exp 1 (SMW475)): 7.16% and 14.38% and 4.59%
Infection Data: Percentage Infection Relative to Appropriate DMSO Control ([2]; 10 uM, Exp 2 (SMW477)): 10.76% and 16.40% and 10.07%
Infection Data: Percentage Infection Relative to Appropriate DMSO Control ([2]; 10 uM, Exp 3 (SMW478)): 46.05% and 27.62% and 30.93%
Infection Data: Average, Mean ([2]; 10 uM): 18.66%
Percentage Infection Relative to Appropriate DMSO Control ([2]; 25 uM): 54.89% and 58.50% and 60.94%
